# In US8299028B2, “Chimeric peptide antagonist for GPCR135 or GPCR142” (Janssen Pharmaceutica NV, priority 2007, dated 2012):
# Experiments:
# [1] = molecular target: T1, endogenous GPCR135 from rat brain slices (Rattus norvegicus, UniProt Q5Y987); experiment: Autoradiography, displacement of 125I-R3/I5 binding on rat brain slices; conditions: at 10 nM
# T1 construct: using endogenous GPCR135 from rat brain slices in autoradiographic studies; from tissue; host or cells: rat brain slices
# T1 sequence (Q5Y987 1-469): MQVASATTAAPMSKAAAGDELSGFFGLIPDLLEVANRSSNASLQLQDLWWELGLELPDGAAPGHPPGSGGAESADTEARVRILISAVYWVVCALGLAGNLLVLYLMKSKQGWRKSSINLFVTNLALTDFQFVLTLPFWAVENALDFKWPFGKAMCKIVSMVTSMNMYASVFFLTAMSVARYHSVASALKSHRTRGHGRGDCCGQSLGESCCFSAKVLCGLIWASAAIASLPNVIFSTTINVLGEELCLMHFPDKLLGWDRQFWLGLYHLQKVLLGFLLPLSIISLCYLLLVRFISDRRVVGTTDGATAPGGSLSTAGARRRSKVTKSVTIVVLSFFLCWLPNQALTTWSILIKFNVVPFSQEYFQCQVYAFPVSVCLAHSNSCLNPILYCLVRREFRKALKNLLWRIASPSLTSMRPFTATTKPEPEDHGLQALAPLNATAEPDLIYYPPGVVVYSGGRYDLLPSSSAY
# Description: FIG. 5 provides autoradiograms of ^125I-R3/I5 binding sites in the rat brain (A) with competition by relaxin-3 (10 nM, B) or R3(BΔ23-27)R/I5 (10 nM, C), and a dose-response curve for R3(BΔ23-27)R/I5 as the competitor in the binding assay on rat brain slices (D). A dose-response curve for human relaxin-3 is included for comparison (D). Nonspecific binding was determined using 1 μM unlabeled relaxin-3.
# R3(BΔ23-27)R/I5 peptide was evaluated pharmacologically using endogenous GPCR135 from rat brain slices in autoradiographic studies as described by Sutton et al., 2004. Briefly, ^125I-R3/I5 was applied in a binding buffer to rat brain slices. Unlabeled human relaxin-3 or R3(BΔ23-27)R/I5 was used at various concentrations as competitors to displace GPCR135 binding of ^125I-R3/I5.
# [2] = tested on: satiated Wistar rats; experiment: Food intake in satiated Wistar rats after i.c.v. administration; format: in vivo, rat; conditions: 10 μg i.c.v.
# Description: FIG. 6 illustrates food consumption in satiated Wistar rats during the first hour of the test session (i.e., Day 2) following i.c.v. administration of vehicle (5 μL)+vehicle (5 μL), vehicle (5 μl)+R3/I5 (10 μg), R3(BΔ23-27)R/I5 (10 μg)+vehicle (5 μl), and R3(BΔ23-27)R/I5 (10 μg)+R3/I5 (10 μg) (mean±SEM; n=5-6 per group) (A).
# Experimentally naïve, male Wistar rats (Charles River, Wilmington, Mass.) weighing 200-225 grams at the time of arrival were used. The animals were initially housed at two per cage and given a one-week acclimation period to the vivarium prior to i.c.v. cannula implantation. All animals had free access to food and water throughout the experiment and were not food deprived prior to behavioral testing. The animal colony was maintained at 22±2° C. during a 12-hr light/12-hr dark illumination cycle with lights on from 0600 to 1800 hours. […]
# A predetermined amount of standard rat chow (Formulab Diet No. 5008, which contained 23.0% protein and 6.5% fat) was placed in the food hopper at the start of the 4 hr session(s). The amount of food remaining in the food hopper was determined by subtracting the weight of the food at 1 and 4 hrs from the initial food weight (i.e., weight of the food at the start of the session). Food crumbs detected on the floor of the apparatus were included in the determination of food weights. […]
Substance,displacement of 125I-R3/I5 binding sites in rat brain sections [1],total food intake over 4 hours ([2]; 4 hours),"food intake, first hour ([2]; first hour)"
"Relaxin-3: Wild type human relaxin-3, B-chain SEQ ID NO:12, A-chain SEQ ID NO:13; positive control",Full displacement,,
R3/I5: Chimeric peptide of relaxin-3 B-chain (SEQ ID NO:12) and INSL5 A-chain (SEQ ID NO:19); selective GPCR135 agonist (beta RAAPYGVRLCGREFIRAVIFTCGGSRW; alpha EDLQTLCCTDGCSMTDLSALC; INSL5 A-chain; listed as Homo Sapiens),,food intake was stimulated,food intake was stimulated
